Results on 10 compounds are retold here after US11612651B2, “Steroid acid-based immunogen enhancers” (priority 2021, dated 2023).

One assay relates to GII.3 human norovirus. The conditions noted are these: host intestinal cells; free bile acids; cited from earlier work.
The subject of the next assay is B3Z cells. Nature of the assay: Antigen-presentation assay using the B3Z reporter system, BMDCs as antigen presenting cells. The class given is cell-based, mouse. The conditions noted are these: for antigen-presentation activity of cholic acid-NLS peptide conjugate (B3Z response OD570): BMDCs as antigen presenting cells, mixed with OVA at best conjugate:antigen ratio, FIGS. 3-5; for antigen cross-presentation (B3Z response) compared with OVA alone: BMDCs, molar ratio (bile acid/peptide/conjugate):antigen 4:1, mixed with OVA, FIG. 2. From the text: For this experiment, BMDCs were used as the antigen presenting cells (n=6) and the molar ratio (bile acid/peptide/conjugate): antigen was 4:1. Controls tested included no antigen (“PBS”), antigen alone (“OVA alone”), unconjugated NLS peptide (“SV40NLS”), unconjugated cholic acid mixed with OVA (“CA”), and the positive control peptide SIINFEKL (SEQ ID NO: 9) mixed with OVA (“SIINFEKL”). The dashed line represents the signal obtained with OVA alone. Bile acids: cholic acid (CA); glycodeoxycholic acid (GDCA); glycochenodeoxycholic acid (GCDCA); ursodeoxycholic acid (UDCA); and lithocholic acid (LCA).
The dashed line represents the signal obtained with OVA alone. The readout was taken after 24 h of incubation and error bars represent SD (n=6). For this experiment, BMDCs were used as the antigen presenting cells.
The dashed line represents the signal obtained with OVA alone. Readout was taken after 24 h of incubation from a single experiment. The molar ratio of CA-peptide conjugate: OVA was 22:1. For this experiment, BMDCs were used as the antigen presenting cells.
For this experiment, BMDCs were used as the antigen presenting cells. The dashed line represents the signal obtained with OVA alone. Readout was taken after 24 h of incubation from a single experiment. The molar ratio of CA-peptide conjugate: OVA was as follows: CA-GWG-SV40NLS (12:1); CA-hnRNP M NLS (12:1); CA-NLS2-RPS17 NLS (22:1); CA-HuR NLS (22:1); CA-cMyc NLS (2:1); CA-NLS3-RPS17 NLS (22:1); CA-NLS2-RG-RPS17 NLS (2:1); CA-PQBP1 NLS (8:1); CA-hnRNPA1 M9 NLS (22:1); and CA-SV40 NLS (2:1).
Various bile acid-NLS conjugates were screened using the B3Z reporter system. The B3Z cell line is a T-cell hybridoma specific for the H2-K^b-SIINFEKL complex. Once activated via its TCR, the LacZ reporter gene (under the NFAT promoter control) is expressed. Briefly, 1.5×10^5 BMDCs or 2.5×10^5 MSCs were co-cultured with 5×10^4 B3Z cells treated with the mixing conditions of ovalbumin (OVA) and bile acid-NLS conjugates for overnight at 37° C. with 5% CO2. The following day, all cells were washed twice with PBS (pH 7.4), and the cell pellets were lysed by adding 100 μL of a lysis buffer containing 0.15 mM chlorophenol red-beta-D-galactopyranoside (CPRG) substrate (Calbiochem, La Jolla, Calif.), 0.125% NP40 (EMD Sciences, La Jolla, Calif.), 9 mM MgCl2 (Aldrich, USA) and 100 mM 2-mercaptoethanol in PBS. After a 5- or 24-h incubation at 37° C., absorbance was taken at 570 nm with 636 nm as the reference wavelength. For these experiments, OVA was re-suspended in PBS (pH 7.3) at 5-10 mg/mL. The different bile acid-NLS conjugates were re-suspended in H2O at 10 mg/mL. Bile acid-NLS conjugate: antigen mixtures were prepared at different molar ratios according to Table 2.
Variants of CA-SV40NLS were synthesized in order to explore structure-activity relationships relating to the antigen cross-presentation enhancing activity observed for this conjugate. More particularly, conjugates having different bile acids conjugated to the SV40NLS peptide (SEQ ID NO: 1) were synthesized and their effect on antigen presentation was evaluated by using the B3Z reporter system with the OVA antigen as described in Example 1. […] In FIG. 2, no increase in antigen cross-presentation over the antigen alone (“OVA”) was observed when OVA was mixed with either unconjugated cholic acid (“CA”) or SV40NLS peptide (“SV40NLS”), although lower sensitivity of the B3Z reporter system as compared to the OT-I CD8 T cell-based assay used in FIG. 1 may have been a factor.
Further variants of CA-SV40NLS were synthesized in which the SV40NLS peptide was replaced with peptides comprising other NLS's (Table 3) and the antigen presentation activities of the CA-NLS peptide conjugates were evaluated using the B3Z reporter system as described in Example 1. The following conjugate:antigen molar ratios were tested for each conjugate: 2:1, 4:1, 8:1, 12:1 and 22:1. […]

Assay [1] deals with cross-presenting mesenchymal stromal cell (MSC) line. Nature of the assay: Antigen internalization: MSC line pulsed with OVA labelled with Alexa Fluor 647, flow cytometry. The class given is cell-based. The conditions noted are these: various conjugate:OVA molar ratios, FIGS. 7A-7D. The method, then: FIGS. 7A to 7D show the effect of different NLS peptides on the antigen internalization activity of cholic acid-NLS peptide conjugates. For this experiment, a cross-presenting mesenchymal stromal cell (MSC) line was used as the antigen presenting cells, which were pulsed with OVA labelled with Alexa Fluor 647 (i.e., OVA^647)™. OVA^647 fluorescence was measured by flow cytometry. Different ratios of CA (NLS1 RPS17 [FIG. 7A]; NLS3 RPS17 [FIG. 7B]; PQBP-1 [FIG. 7C]; and hnRNPA1 M9 NLS [FIG. 7D]) to antigen (CA:OVA=22:1, 12:1, 8:1, 4:1, and 2:1) were tested (hnRNPA1 M9 NLS at 2:1).
(§1) To further dissect the effect of bile acid peptide conjugates on antigen presentation, antigen internalization and processing were evaluated. MSC cell lines were pulsed with OVA-labelled with AF647 in the presence of various molar ratios of different bile acid peptide conjugates, NLS1-RPS17 [FIG. 7A]; NLS3 RPS17 [FIG. 7B]; PQBP-1 [FIG. 7C]; and hnRNPA1 M9 NLS [FIG. 7D]) and fluorescence was assessed by flow cytometry. […] OVA processing was assessed by pulsing MSC cell lines with DQ™-Ovalbumin (OVA-DQ) in the presence of the same bile acid peptide conjugates as in FIGS. 7A to 7D.

Assay [2] shares this test system. Nature of the assay: Antigen processing: MSC line pulsed with DQ Ovalbumin (OVA-DQ), flow cytometry. The following applies: various conjugate:OVA molar ratios, FIGS. 8A-8D. The class given is cell-based. Here is the method: FIGS. 8A to 8D show the effect of different NLS peptides on the antigen processing activity of cholic acid-NLS peptide conjugates. For this experiment, a cross-presenting mesenchymal stromal cell (MSC) line was used as the antigen presenting cells, which were pulsed with DQ™ Ovalbumin (i.e., OVA^DQ). OVA^DQ fluorescence was measured by flow cytometry. Different ratios of CA (NLS1 RSP17 [FIG. 8A]; NLS3 RPS17 [FIG. 8B]; PQBP-1 [FIG. 8C]; and hnRNPA1 M9 NLS [FIG. 8D]) to antigen (CA:OVA=22:1, 12:1, 8:1, 4:1, and 2:1) were tested (hnRNPA1 M9 NLS at 2:1).
as §1

No end group written: not given here. *: point of attachment. Cholyl = C[C@H](CCC(=O)*)[C@H]1CC[C@H]2[C@@H]3[C@H](O)C[C@@H]4C[C@H](O)CC[C@]4(C)[C@H]3C[C@H](O)[C@]12C Bounds are passed on as bounds.

On to `C[C@H](CCC(=O)NCC(=O)O)[C@H]1CC[C@H]2[C@@H]3[C@H](O)C[C@@H]4C[C@H](O)CC[C@]4(C)[C@H]3C[C@H](O)[C@]12C` [GCA, glycocholic acid], for which, in the assay on GII.3 human norovirus, the “effect on GII.3 human norovirus infection and replication” value is “increase GII.3 human norovirus infection and replication”. In the case of `C[C@H](CCC(=O)NCC(=O)O)[C@H]1CC[C@H]2[C@@H]3[C@@H](O)C[C@@H]4C[C@H](O)CC[C@]4(C)[C@H]3CC[C@]12C` [GUDCA, glycoursodeoxycholic acid], the “immunogen enhancer activity (B3Z reporter system)” value with B3Z cells (GUDCA:OVA molar ratios 2:1, 4:1, 8:1, 12:1 and 22:1) was “observed at all GUDCA:OVA molar ratios tested”. Moreover, the “increase in B3Z response (OD570) over the OVA alone” value with B3Z cells (unconjugated GUDCA mixed with OVA, 22:1, data not shown) was ≤ 30%. Take `C[C@H](CCC(=O)NCCS(=O)(=O)O)[C@H]1CC[C@H]2[C@@H]3[C@H](O)C[C@@H]4C[C@H](O)CC[C@]4(C)[C@H]3C[C@H](O)[C@]12C` [TCA, taurocholic acid]: the “effect on GII.3 human norovirus infection and replication” value with GII.3 human norovirus is “increase GII.3 human norovirus infection and replication”. Take “CA-NLS2-RG-RPS17 NLS: cholic acid conjugated to NLS2-RG Domain RPS17 peptide (SEQ ID NO: 11) (CNKRVCEEIAIIPSKKLRNKGSGRIQRGPVRGIS; cysteine pairing not given here; also: cholic acid conjugate, site not given here)”: the “antigen-presentation activity of cholic acid-NLS peptide conjugate (B3Z response OD570)” value (from here on “antigen-presentation activity”) with B3Z cells was “high antigen presentation activity”. Turning to “CA-NLS3-RPS17 NLS: cholic acid conjugated to peptide SKKLRNKIAGYVTHLMKRI (SEQ ID NO: 8) (also: cholic acid conjugate, site not given here)”, the “antigen-presentation activity” value in the assay with B3Z cells is “high antigen presentation activity”. The “OVA internalization (OVA-AF647 fluorescence)” value in assay [1] is listed as “enhance OVA internalization”. In addition, the “OVA processing (OVA-DQ fluorescence)” value in assay [2] is reported as “enhance OVA processing”. Consider “CA-SV40NLS: cholic acid conjugated to the N-terminal cysteine amino group of 13-mer peptide CGYGPKKKRKVGG (SEQ ID NO: 1) (Cholyl-CGYGPKKKRKVGG)”, for which the “antigen cross-presentation (B3Z response) compared with OVA alone” value in the assay on B3Z cells is listed as “increased antigen cross-presentation”. For “CA-cMyc NLS: cholic acid conjugated to peptide CGYGPAAKRVKLDGG (SEQ ID NO: 12) (also: cholic acid conjugate, site not given here)”, the “antigen-presentation activity” value in the assay on B3Z cells is “high antigen presentation activity”. As for “CA-hnRNPA1 M9 NLS: cholic acid conjugated to peptide CSNFGPMKGGNFGGRSSGPY (SEQ ID NO: 4) (also: cholic acid conjugate, site not given here)”, in assay [1], the “OVA internalization (OVA-AF647 fluorescence)” value was “enhance OVA internalization”. For the same compound, the “OVA processing (OVA-DQ fluorescence)” value in assay [2] is listed as “enhance OVA processing”. Taken in the same sequence, the figures for “NLS1-RPS17: cholic acid conjugated to peptide CMGRVRTKTVKKAAGG (SEQ ID NO: 15) (also: cholic acid conjugate, site not given here)” were “enhance OVA internalization” and “enhance OVA processing”. On to “SV40NLS: unconjugated NLS peptide CGYGPKKKRKVGG (SEQ ID NO: 1) (SV40NLS) [reference compound]”, for which the “antigen cross-presentation (B3Z response) compared with OVA alone” value in the assay on B3Z cells was “no increase”.
